From paper PMC5552351, “Bacteriological profiling of diphenylureas as a novel class of antibiotics against methicillin-resistant Staphylococcus aureus” (PLoS ONE, 2017)
Converted amounts (≈) assume the structure as drawn. Read-outs that look alike come from different tables or passages of the source.

Tests used:
VRS11a = test: broth microdilution MIC/MBC; type: cell-based; conditions: Staphylococcus aureus, VRS11a, vancomycin-resistant S. aureus; for MBC: read-out: MBC; for MIC: read-out: MIC
Experimental: (§1) The broth microdilution assay was employed to determine the MIC of compounds 1, 2, and vancomycin against five MRSA strains, four VRSA strains, one highly mupirocin-resistant S. aureus strain, one biofilm-forming S. aureus (ATCC 6538) strain, and one biofilm-forming methicillin-resistant S. epidermidis strain, as per the guidelines of the Clinical and Laboratory Standards Institute (CLSI). […] The MBC was determined by plating an aliquot (5 μL) from wells with no growth onto TSA plates. Plates were incubated at 37 °C for 19 hours before recording the MBC (concentration where no growth was observed on TSA plates).

MRSA NRS384 (USA300) = test: broth microdilution MIC/MBC; type: cell-based; conditions: Staphylococcus aureus, MRSA NRS384 (USA300); for MBC: read-out: MBC; for MIC: read-out: MIC
Experimental: as §1

VRS4 = test: broth microdilution MIC/MBC; type: cell-based; conditions: Staphylococcus aureus, VRS4, vancomycin-resistant S. aureus; for MBC: read-out: MBC; for MIC: read-out: MIC
Experimental: as §1

VRS10 = test: broth microdilution MIC/MBC; type: cell-based; conditions: Staphylococcus aureus, VRS10, vancomycin-resistant S. aureus; for MBC: read-out: MBC; for MIC: read-out: MIC
Experimental: as §1

MRSA NRS484 (USA1100) = test: broth microdilution MIC/MBC; type: cell-based; conditions: Staphylococcus aureus, MRSA NRS484 (USA1100); for MBC: read-out: MBC; for MIC: read-out: MIC
Experimental: as §1

MRSA NRS123 (USA400) = test: broth microdilution MIC/MBC; type: cell-based; conditions: Staphylococcus aureus, MRSA NRS123 (USA400); for MBC: read-out: MBC; for MIC: read-out: MIC
Experimental: as §1

S. aureus NRS107 = test: broth microdilution MIC/MBC; type: cell-based; conditions: Staphylococcus aureus, S. aureus NRS107; for MBC: read-out: MBC; for MIC: read-out: MIC
Experimental: as §1

MRSA NRS483 (USA1000) = test: broth microdilution MIC/MBC; type: cell-based; conditions: Staphylococcus aureus, MRSA NRS483 (USA1000); for MBC: read-out: MBC; for MIC: read-out: MIC
Experimental: as §1

[1] = system: S. epidermidis NRS101 biofilm; test: biofilm mass disruption, crystal violet reporter assay; type: cell-based, Staphylococcus epidermidis; conditions: even at 128 μg/mL, 24-hour treatment
Experimental: (§2) Compounds 1, 2, and vancomycin were examined for their ability to eradicate mature staphylococcal biofilm using the microtiter dish biofilm formation assay. S. epidermidis NRS101 and S. aureus ATCC 6538 were selected as the test organisms given their ability to form strong adherent biofilm. An overnight culture of bacteria was diluted (1:100 in TSB + 1% glucose) and transferred to a 96-well plate. The plate was incubated for 24 hours at 37 °C in order to form adherent biofilm on the surface of the plate wells. The medium containing the bacterial suspension was removed and the biofilm was washed with sterile PBS to remove planktonic cells. Compounds 1, 2, or vancomycin (from 128 to 1 μg/mL), in triplicate, in TSB were incubated with the biofilm for 24 hours at 37 °C.
(§3) Compounds were subsequently removed. The biofilm was washed with PBS and then stained with 1% (w/v) crystal violet for 40 minutes. The stain was removed and wells were washed with sterile PBS. Wells were next decolorized using 95% ethanol. The optical density of each well at 595 nm was measured using a microplate reader.

S. aureus ATCC 6538 = test: broth microdilution MIC; type: cell-based; conditions: Staphylococcus aureus, ATCC6538; S. aureus ATCC 6538, biofilm-forming strain; read-out: MIC
Experimental: as §1

S. epidermidis NRS101 = test: broth microdilution MIC; type: cell-based; conditions: Staphylococcus epidermidis; S. epidermidis NRS101, biofilm-forming strain; read-out: MIC
Experimental: as §1

MRSA USA300 (NRS384) = test: time-kill assay; type: cell-based, Staphylococcus aureus; conditions: 4 × MIC; for reduction of MRSA CFU/mL: within two hours
[2] = system: S. epidermidis NRS101 biofilm; test: bacterial CFU inside mature biofilm post-treatment; type: cell-based, Staphylococcus epidermidis; conditions: 24 hours
Experimental: as §2
For enumeration of viable CFU inside the biofilm, compounds were removed, wells were washed with sterile PBS, and treated with 0.25% Trypsin-2.21 mM EDTA solution as described elsewhere. The solution containing cells was transferred to a 96-well plate, serially diluted in PBS, and plated on TSA. Plates were incubated at 37 °C for 19 hours before viable CFU were counted. Data are presented as average log10(CFU/mL) of bacteria present in the biofilm post-treatment.

[3] = system: S. aureus ATCC 6538 biofilm; test: biofilm mass disruption, crystal violet reporter assay; type: cell-based, Staphylococcus aureus; conditions: all concentrations tested
Experimental: as §2, §3

MRSA USA400 (NRS123) = test: MIC in presence and absence of human serum albumin; type: cell-based, Staphylococcus aureus; conditions: for increase in MIC in the presence of HSA: MRSA USA400, 4% human serum albumin vs none; for MIC: Staphylococcus aureus, TSB
Experimental: The broth microdilution assay presented above was used to assess if compounds 1 and 2 bind to a major component of blood (human serum albumin) thus limiting the free fraction of drug available to exert its antibacterial effect. […] CaCl2 ([…]) was added to wells containing daptomycin, per the CLSI guidelines.

[4] = system: human epithelial colorectal (Caco-2) cell line; test: MTS cytotoxicity assay; type: cell-based; conditions: Caco-2, MTS assay, highest concentration tested
Experimental: Compounds 1 and 2 were assayed (at concentrations of 16 μg/mL, 32 μg/mL, 64 µg/mL, and 128 μg/mL) against a human epithelial colorectal (Caco-2) cell line (American Type Culture Collection, ATCC HTB-37) using the MTS assay. Cells were cultured in DMEM supplemented with penicillin-streptomycin, nonessential amino acids (1%), and FBS (10%), at 37 °C with CO2 (5%). The cells were incubated with compounds (in triplicate) or DMSO (negative control) in a 96-well tissue culture-treated plate at 37 °C with CO2 (5%) for two hours. The MTS assay reagent (Promega, Madison, WI, USA) was subsequently added to each well and plates were incubated for four hours at 37 °C with CO2 (5%). The quantity of viable cells (at OD490) after treatment was expressed as a percentage of the viability of DMSO-treated control cells (average of triplicate wells ± standard deviation). The toxicity data was analyzed via a two-way ANOVA, with post hoc Dunnet’s multiple comparisons test (n = 3, P < 0.05), utilizing GraphPad Prism 6.0 (GraphPad Software, La Jolla, CA).

[5] = parameters: method as in PMID 28249208; conditions: human liver microsomes; ref [21]; cited from earlier work
[6] = 4% human serum albumin, read-out: MIC vs. MRSA USA400 (+HSA)
[7] = without human serum albumin, read-out: MIC vs. MRSA USA400 (-HSA)

Row | SMILES | MBC (VRS11a) | MIC (VRS11a) | MBC (MRSA NRS384 (USA300)) | MIC (MRSA NRS384 (USA300)) | MBC (VRS4) | MIC (VRS4) | MBC (VRS10) | MIC (VRS10) | MBC (MRSA NRS484 (USA1100)) | MIC (MRSA NRS484 (USA1100)) | MBC (MRSA NRS123 (USA400)) | MIC (MRSA NRS123 (USA400)) | MBC (S. aureus NRS107) | MIC (S. aureus NRS107) | MBC (MRSA NRS483 (USA1000)) | MIC (MRSA NRS483 (USA1000)) | decrease in S. epidermidis biofilm mass [1] | MIC (S. aureus ATCC 6538) | MIC (S. epidermidis NRS101) | time to completely eradicate a high inoculum of MRSA (~10^6 CFU/mL) (MRSA USA300 (NRS384)) | other results
1 | C/C(=N\NC(=N)N)c1ccc(NC(=O)Nc2ccc(OCCC(C)C)cc2)cc1 [compound 1] | 4 µg/mL (≈ 10.1 µM) | 4 µg/mL (≈ 10.1 µM) | 4 µg/mL (≈ 10.1 µM) | 4 µg/mL (≈ 10.1 µM) | 8 µg/mL (≈ 20.2 µM) | 8 µg/mL (≈ 20.2 µM) | 4 µg/mL (≈ 10.1 µM) | 4 µg/mL (≈ 10.1 µM) | 8 µg/mL (≈ 20.2 µM) | 8 µg/mL (≈ 20.2 µM) | 4 µg/mL (≈ 10.1 µM) | 4 µg/mL (≈ 10.1 µM) | 4 µg/mL (≈ 10.1 µM) | 4 µg/mL (≈ 10.1 µM) | 4 µg/mL (≈ 10.1 µM) | 4 µg/mL (≈ 10.1 µM) | no decrease | 4 µg/mL (≈ 10.1 µM) | 2 µg/mL (≈ 5.04 µM) | within four hours | reduction of MRSA CFU/mL (MRSA USA300 (NRS384)): 3 log10; reduction in bacterial CFU within S. epidermidis biofilm ([2]; 64 μg/mL): 1.0 log10; reduction in bacterial CFU within S. epidermidis biofilm ([2]; 128 μg/mL): 2.84 log10; reduction in bacterial CFU within S. epidermidis biofilm ([2]; 8, 16, and 32 μg/mL, vs untreated control): no reduction; change in optical density of S. aureus biofilm (biofilm mass) [3]: no change; increase in MIC in the presence of HSA (MRSA USA400 (NRS123)): seven-fold; MIC (MRSA USA400 (NRS123); [6]): 32 µg/mL (≈ 80.7 µM); MIC (MRSA USA400 (NRS123); [7]): 4 µg/mL (≈ 10.1 µM); non-toxic up to (concentration) [4]: ≥ 128 µg/mL; intrinsic half-life [5]: exceeded four hours
2 | C/C(=N\NC(=N)N)c1ccc(NC(=O)Nc2ccc(OC3CCCCCC3)cc2)cc1 [compound 2] | 8 µg/mL (≈ 18.9 µM) | 8 µg/mL (≈ 18.9 µM) | 16 µg/mL (≈ 37.9 µM) | 8 µg/mL (≈ 18.9 µM) | 16 µg/mL (≈ 37.9 µM) | 16 µg/mL (≈ 37.9 µM) | 8 µg/mL (≈ 18.9 µM) | 4 µg/mL (≈ 9.47 µM) | 16 µg/mL (≈ 37.9 µM) | 16 µg/mL (≈ 37.9 µM) | 8 µg/mL (≈ 18.9 µM) | 8 µg/mL (≈ 18.9 µM) | 8 µg/mL (≈ 18.9 µM) | 8 µg/mL (≈ 18.9 µM) | 16 µg/mL (≈ 37.9 µM) | 16 µg/mL (≈ 37.9 µM) | no decrease | 8 µg/mL (≈ 18.9 µM) | 4 µg/mL (≈ 9.47 µM) | within four hours | reduction of MRSA CFU/mL (MRSA USA300 (NRS384)): 3 log10; reduction in bacterial CFU within S. epidermidis biofilm ([2]; all concentrations tested (from 8 to 128 μg/mL)): unable to reduce; change in optical density of S. aureus biofilm (biofilm mass) [3]: no change; increase in MIC in the presence of HSA (MRSA USA400 (NRS123)): 15 fold; MIC (MRSA USA400 (NRS123); [6]): 128 µg/mL (≈ 303 µM); MIC (MRSA USA400 (NRS123); [7]): 8 µg/mL (≈ 18.9 µM); non-toxic up to (concentration) [4]: ≥ 128 µg/mL; intrinsic half-life [5]: exceeded four hours
